Measurements published in paper PMC11677724, “Preclinical Study of a Dual-Target Molecular Probe Labeled with ^68Ga Targeting SSTR2 and FAP” (Pharmaceuticals, 2024).

How the values were obtained:
[1] = Pharmacokinetics, blood time-activity curves, two-compartment model; assay type: in vivo, BALB/c mice
Procedure: Nine female healthy BALB/c mice were randomly divided into three groups (with three mice in each group) using a random number table. Each group was administered 100 µL of [^68Ga]Ga-TATE-46, [^68Ga]Ga-DOTA-TATE, or [^68Ga]Ga-FAPI-46 (0.37 MBq) via tail vein injection. Blood samples (5 µL × 3) were collected at 2, 5, 10, 15, 30, 60, 90, and 120 min post-injection via tail vein. The radioactivity in the blood was measured with a γ-counter and converted to blood radioactivity concentration (kBq/mL). The pharmacokinetic data (time–blood radioactivity concentration) were analyzed by using the two-compartment model in the pharmacokinetic software WinNonlin (Certara, Louis, MO, USA, 2018-06) to determine the distribution and clearance half-life parameters of the radiopharmaceuticals in the mice.

[2] = Partition coefficient (log P), n-octanol/PBS; assay type: physicochemical
Procedure: In a 15 mL centrifuge tube, 2.9 mL of PBS (0.1 mol/L, pH = 7.4) and 3 mL of n-octanol were added. [^68Ga]Ga-TATE-46, [^68Ga]Ga-DOTA-TATE, or [^68Ga]Ga-FAPI-46 (14.8 MBq, 100 µL) were added to each tube. The mixture was vortexed at room temperature for 2 min to ensure thorough blending, and then centrifuged at room temperature (effective centrifuge radius 12 cm, 3000 rpm) for 5 min. After allowing sufficient time for phase separation, three 500 µL samples were taken from each layer. The radioactivity of each sample was measured using a γ-counter (count per minute, CPM), and log p = log (n-octanol CPM/water CPM) was calculated. The experiment was repeated three times.

[3] = Ex vivo biodistribution in NCI-H727 tumor-bearing mice; settings: female, BALB/c nude, mouse, in vivo, 1.48 MBq, total radioactivity, Biodistribution
Procedure: (§1) Female BALB/c nude mice were obtained from Charles River Laboratories (Beijing, China). […] Approximately 5 × 10^6 cells were implanted into the right shoulder of each mouse to establish an NCI-H727 tumor model and Mc38 tumor model. Once the tumor volume reached 200–300 mm^3, the mice were used for imaging or biodistribution studies. All animal experiments were carried out in accordance with the National Institutes of Health Guidelines for the Care and Use of Laboratory Animals and were approved by the Animal Protection and Utilization Committee of the General Hospital of the PLA (Approval No.: S2023-209-1).
(§2) The NCI-H727 tumor-bearing mice were randomly assigned to four groups (with three mice in each group) and were injected with [^68Ga]Ga-TATE-46 (1.48 MBq, 100 µL). The mice were put to death at 0.5, 1, 2, and 4 h post-injection (p.i.). The tissues and organs of concern were gathered, weighed, and measured for radioactivity using a γ-counter. Additionally, [^68Ga]Ga-DOTA-TATE and [^68Ga]Ga-FAPI-46 were used as control groups in the biodistribution study of the NCI-H727 tumor model at 1 h p.i. After performing time decay correction, the radiotracer uptake in each tissue and organ was calculated as %ID/g.

[4] = test system: NCI-H727 tumor-bearing mice; assay: as above; settings: 1 h p.i., γ-counter, mean ± SD, n=3
Procedure: as §1, §2

[5] = female healthy BALB/c mice, n = 3 per group, 0.37 MBq tail vein, blood 2-120 min, γ-counter, two-compartment model (WinNonlin)

SMILES: C[C@@H](O)[C@H](NC(=O)[C@@H]1CSSC[C@H](NC(=O)[C@@H](Cc2ccccc2)NC(=O)CN2CCN(CC(=O)O)CCN(CC(=O)O)CCN(CC(=O)O)CC2)C(=O)N[C@@H](Cc2ccc(O)cc2)C(=O)N[C@H](Cc2c[nH]c3ccccc23)C(=O)N[C@@H](CCCCN)C(=O)N[C@@H]([C@@H](C)O)C(=O)N1)C(=O)O [[^68Ga]Ga-DOTA-TATE, metal not drawn, reference compound]
- distribution half-life ([1]; mouse, in vivo): 1.38 min
- elimination half-life ([1]; mouse, in vivo): 19.50 min
- logD ([2]; pH 7.4): -3.02 ± 0.08
- tissue uptake at 1 h ([3]; Blood): 0.42 ± 0.15 %ID/g
- tissue uptake at 1 h ([3]; Brain): 0.03 ± 0.01 %ID/g
- tissue uptake at 1 h ([3]; Heart): 0.23 ± 0.09 %ID/g
- tissue uptake at 1 h ([3]; Intestine): 1.48 ± 0.11 %ID/g
- tissue uptake at 1 h ([3]; Kidney): 9.18 ± 3.65 %ID/g
- tissue uptake at 1 h ([3]; Liver): 1.35 ± 0.28 %ID/g
- tissue uptake at 1 h ([3]; Lung): 5.22 ± 0.82 %ID/g
- tissue uptake at 1 h ([3]; Spleen): 1.22 ± 0.11 %ID/g
- tissue uptake at 1 h ([3]; Stomach): 7.98 ± 0.89 %ID/g
- tissue uptake at 1 h ([3]; Tumor (tumor uptake)): 1.57 ± 0.17 %ID/g

SMILES: CN(CCCN1CCN(C(=O)CN2CCN(CC(=O)[O-])CCN(CC(=O)[O-])CCN(CC(=O)[O-])CC2)CC1)c1ccc2nccc(C(=O)NCC(=O)N3CC(F)(F)C[C@H]3C#N)c2c1.[68Ga+3] [[^68Ga]Ga-FAPI-46, reference compound]
- distribution half-life [1, 5]: 0.64 min
- elimination half-life [1, 5]: 21.77 min
- Log p ([2]; shake-flask n-octanol/PBS (0.1 mol/L, pH 7.4), 14.8 MBq in 100 µL, vortexed 2 min at room temperature, centrifuged 3000 rpm 5 min, γ-counter CPM, mean ± SD, repeated three times): −3.05 ± 0.04
- Biodistribution, Tumor (tumor uptake) ([4]; NCI-H727 tumor): 1.07 ± 0.01 %ID/g
- Biodistribution, Blood ([4]; NCI-H727 tumor-bearing mice): 1.05± 0.05 %ID/g
- Biodistribution, Bone ([4]; NCI-H727 tumor-bearing mice): 0.51± 0.05 %ID/g
- Biodistribution, Brain ([4]; NCI-H727 tumor-bearing mice): 0.05± 0.01 %ID/g
- Biodistribution, Heart ([4]; NCI-H727 tumor-bearing mice): 0.39± 0.16 %ID/g
- Biodistribution, Intestine ([4]; NCI-H727 tumor-bearing mice): 0.38± 0.01 %ID/g
- Biodistribution, Kidney ([4]; NCI-H727 tumor-bearing mice): 2.25± 0.12 %ID/g
- Biodistribution, Liver ([4]; NCI-H727 tumor-bearing mice): 2.56± 0.95 %ID/g
- Biodistribution, Lung ([4]; NCI-H727 tumor-bearing mice): 3.17± 0.79 %ID/g
- Biodistribution, Muscle ([4]; NCI-H727 tumor-bearing mice): 0.18± 0.02 %ID/g
- Biodistribution, Spleen ([4]; NCI-H727 tumor-bearing mice): 3.75± 0.75 %ID/g
- Biodistribution, Stomach ([4]; NCI-H727 tumor-bearing mice): 0.38± 0.01 %ID/g
